Source: patent publication US11845770B2, “Ascaroside derivatives and methods of use” (California Institute of Technology, priority 2019, dated 2023)

Experiments:
[1] = Stability in hepatocytes (human); format: in vitro ADME; conditions: cryopreserved human hepatocytes (suspension)
Procedure: 10 mM of 1 was provided as a 1000× stock solution in dimethylsulfoxide (DMSO), and the stock solution was diluted to 1 mM with DMSO in 96-well plates. 30 mM of positive compounds (7-ethoxycoumarin and 7-hydroxycoumarin) were provided as a 1000× stock solution in DMSO, and the stock solution was diluted to 3 mM with DMSO in 96-well plates. 20 μL of 1000× stock solution of each compound were pipetted and was mixed with 380 μL of 45% MeOH/H2O to obtain 50 μM of 1 and 150 μM of the positive control compound solutions to form 50× intermediate solutions. 20 μL of 50× intermediate solution of each compound were pipetted and was mixed with […] of pre-warmed incubation medium to obtain 5 μM of 1 and 15 μM of the positive control compound solutions to form 5× working solutions. The incubation medium was Williams' Medium E (no phenol red) containing 2 mM L-glutamine and 25 mM HEPES. 10 μL of 5× working solutions of each compound were pipetted into appropriate wells in a 96-well plate for time points of 0 minutes, 15 minutes, 30 minutes, 60 minutes, and 90 minutes in duplicates. The plates with compounds were kept warm in an incubator at 37° C.
A cell suspension was prepared by thawing cryopreserved cells, isolating the cells, and suspending the cells in thawing medium. […]
The remaining percentage of 1 after incubation was calculated according to the following equation. […]

[2] = Stability in plasma (human); format: in vitro ADME; conditions: after 120 minutes, 37° C.
Procedure: The pH of plasma was adjusted to 7.4±0.1 if required. 1 mM intermediate solution was prepared by diluting 10 μL of the 10 mM stock solution of 1 with 90 μL DMSO; 1 mM intermediate of positive control propantheline bromide was prepared by diluting 10 μL of the stock solution with 90 μL ultra-pure water. 100 μM dosing solution was prepared by diluting 10 μL of the 1 mM intermediate solution with 90 μL of 45% MeOH/H2O. 98 μL of blank plasma was spiked with 2 μL of the 100 μM dosing solution to achieve a final concentration of 2 μM of the compound in duplicate. Samples were incubated at 37° C. in a water bath. At each time point (0, 10, 30, 60 and 120 min), 400 μL of stop solution (200 ng/mL tolbutamide plus 200 ng/mL labetalol in 50% ACN/MeOH) was added and was mixed thoroughly to precipitate protein. Sample plates were centrifuged at 4,000 rpm for 10 min. An aliquot of supernatant (100 μL) was transferred from each well and was mixed with 200 μL ultra-pure water. The samples were shaken at 800 rpm for about 10 min before LC/MS/MS analysis.
The remaining percentage of compound 1 (test article) after incubation was calculated according to the following equation.

CYP2C19 = target: T1, CYP2C19 (Homo sapiens, UniProt P33261); experiment: 5 in 1 CYP inhibition assay, CYP2C19; format: in vitro ADME; conditions: microsomes, probe S-mephenytoin (4′-hydroxylation), test compound 10 μM, n=2, read-out: inhibition of cytochrome P450 isoform 2C19
T1 construct: from tissue
T1 sequence (P33261 whole entry, canonical isoform): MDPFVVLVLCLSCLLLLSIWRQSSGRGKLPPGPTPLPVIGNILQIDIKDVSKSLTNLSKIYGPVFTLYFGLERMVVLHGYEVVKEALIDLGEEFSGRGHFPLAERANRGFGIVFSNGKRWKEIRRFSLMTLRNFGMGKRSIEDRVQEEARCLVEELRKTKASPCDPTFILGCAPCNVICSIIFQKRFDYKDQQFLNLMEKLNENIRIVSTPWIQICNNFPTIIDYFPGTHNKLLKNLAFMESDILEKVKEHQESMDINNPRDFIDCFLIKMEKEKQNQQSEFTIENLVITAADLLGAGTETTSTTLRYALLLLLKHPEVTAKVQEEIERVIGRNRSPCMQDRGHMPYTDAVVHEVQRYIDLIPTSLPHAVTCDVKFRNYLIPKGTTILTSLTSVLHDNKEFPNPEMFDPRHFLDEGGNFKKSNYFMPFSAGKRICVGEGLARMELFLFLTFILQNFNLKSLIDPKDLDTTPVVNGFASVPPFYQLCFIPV
Procedure: CYP450 dependent activities were determined using a marker substrate cocktail. For each reaction, enzyme activities in the presence and absence of test compound (10 μM) were measured in duplicate. A known inhibitor for each isoform, tested at a single concentration (3 μM, n=2), was included as positive control. Incubation mixtures containing microsomes, substrate, and standard inhibitor or test compound were warmed at 37° C. for 10 minutes. Reactions were initiated by addition of the NADPH and incubated for 10 min. [table] After incubation, ice cold acetonitrile was added to terminate the reaction. Generation of metabolites from the substrate reactions was determined by LC-MS/MS.

[3] = system: A549 human alveolar epithelial cells; experiment: Stimulation of A549 human lung carcinoma cell line, cytokine expression; format: cell-based; conditions: A549, 10 ng/mL TNFα + 10 ng/mL IL-1β, 48 hours; for percent inhibition relative to Stimulated of IL-8 expression: FIG. 16
Procedure: A549 cells are cultured in DMEM supplemented with 2 mM glutamine and 10% Fetal Bovine Serum (FBS) at 37° C. with 5% (v/v) CO2. Cells are grown to approximately 80% confluency before being passage and media is changed every 2-3 days. A549 cells are seeded in 24-well plates at a density of 0.5×10^6 cells per well at 37° C. with 5% (v/v) CO2. The cells are pre-treated with the compounds (0, 1.0, 10, 100 μM) for 1 hour prior to addition of 10 ng/mL of TNFα and 10 ng/mL of IL-1β for 48 hours at 37° C. with 5% (v/v) CO2. Supernatants were collected and stored at −80° C. until quantitative detection assays are performed.
Human Eotaxin, Monocyte Chemoattractant Protein-1 (MCP-1), Interleukin-6 (IL-6), Interleukin-25 (IL-25), Interleukin-33 (IL-33), Thymic stromal lymphopoietin (TSLP), and Granulocyte-Macrophage Colony-Stimulating Factor (GM-CSF) released from supernatants collected post stimulation were measured using Human Magnetic Luminex® Assay Kit. Human CCL5/RANTES was measured using an Enzyme-Linked Immunosorbent Assay (ELISA)-based analysis.

| half-life at 1 µM [1] | remaining percentage after incubation [2] | inhibition at 10 min, 10 µM (CYP2C19) | SMILES | percent inhibition relative to Stimulated of IL-8 expression ([3]; 1.0, 10, 100 μM) | percent inhibition relative to Stimulated of GM-CSF expression ([3]; 1.0, 10, 100 μM, FIG. 16, 17) | percent inhibition relative to Stimulated of IL-25 expression ([3]; 1.0, 10, 100 μM, FIG. 16, 17) | percent inhibition relative to Stimulated of IL-33 expression ([3]; 1.0, 10, 100 μM, FIG. 16, 17) | percent inhibition relative to Stimulated of MCP-1 expression ([3]; 1.0, 10, 100 μM, FIG. 16, 17) | percent inhibition relative to Stimulated of Eotaxin expression ([3]; FIG. 18) | percent inhibition relative to Stimulated of IL-6 expression ([3]; FIG. 18) | percent inhibition relative to Stimulated of RANTES expression ([3]; FIG. 18) | percent inhibition relative to Stimulated of TSLP expression ([3]; FIG. 18) |
| --- | --- | --- | --- | --- | --- | --- | --- | --- | --- | --- | --- | --- |
| 1.77 h | 86.5% | 16.2% | C[C@H](CC/C=C/C(=O)OC(C)(C)C)O[C@@H]1O[C@@H](C)[C@H](O)C[C@H]1O [Compound 1, tert-butyl (2E,6R)-6-{[(2R,3R,5R,6S)-3,5-dihydroxy-6-methyloxan-2-yl]oxy}hept-2-enoate] | dose-dependent inhibition | statistically significant, dose-dependent inhibition | dose-dependent inhibition | statistically significant, dose-dependent inhibition | statistically significant, dose-dependent inhibition | robust, statistically significant inhibition | robust, statistically significant inhibition | robust, statistically significant inhibition | robust, statistically significant inhibition |
| > 3.61 h | 89.8% | 4% | C[C@H](CC/C=C/C(=O)O)O[C@@H]1O[C@@H](C)[C@H](O)C[C@H]1O [ascr #7, reference compound] | did not influence | statistically significant but not dose-dependent inhibition | did not influence | – | statistically significant but not dose-dependent inhibition | – | – | – | – |
